Results published in patent US4788206A, “Pentadieneamides” (Hoffmann-La Roche Inc., priority 1987, dated 1988).

Tested on: PAF-Induced Bronchoconstriction
Test: PAF Induced Bronchoconstriction Assay
Type: in vivo, guinea pig
Settings: for inhibition in vivo at 50 mg/kg: Cavia porcellus, po, 2-hour pretreatment, read-out: Percent Inhib. of PAF-Induced Bronchoconstriction, 50 mg/Kg p.o.; for inhibition in vivo at 50 mg/kg / Percent Inhib. of PAF-Induced Bronchoconstriction, 50 mg/Kg p.o. (8 hr): 50 mg/Kg p.o.; for Percent Inhib. of PAF-Induced Bronchoconstriction, mg/Kg i.v.: i.v. (dose not given), 1 minute pretreatment, PAF 1.0 μg/kg i.v.
Procedure: PAF Induced Bronchoconstriction Assay
Male animals (Hartlet Strain 400-500 g) were anesthetized with urethane (2 g/kg. i.p.). Each animals' trachea was cannulated and the guinea pigs were repirated using a Harvard small animal rodent respirator (3.0 cc stroke volume, 40 breaths per min.). Tracheal pressure was recorded from a cannula inserted in the trachea and connected to a Statham Pressure Transducer.
The jugular vein was cannulated for administering compounds. Spontaneous breathing was arrested with succinylcholine (1.2 mg/kg. i.v.) administered 2 minutes prior to intravenous injection of platelet activating factor (PAF).
For, the intravenous testing, the guinea pig is given a 5-minute pretreatment with propranolol at a dose of 0.1 mg/kg intravenously. The test compound is administered with a 1 minute pretreatment prior to intravenous challenge with PAF. The animal is than challenged with a 1.0 μg/kg intravenous dose of PAF and the change is tracheal pressure is measured.
For the oral testing, the procedure includes a 2-hour pretreatment period with the test compound administered through an oral gavage tube. Propranolol or succinylcholine and PAF are administered intravenously, and the change in tracheal pressure measured.
The change is tracheal pressure is determined by subtracting the steady state baseline achieved after administration of succinylcholine from the peak bronchoconstriction seen after challenge with PAF. The mean is calculated for each test compound and compared to the mean of the control animals to give the percent inhibition of bronchoconstriction. The standard error is calcuated as the standard error of the mean.

Structure (SMILES): COc1ccc(C(=C/C=C/C(=O)NC(CCCc2cccnc2)C(C)C)c2ccc(OC)cc2)cc1 (racemic) [[R,S-(E)]-5,5-bis(4-methoxyphenyl)-N-[1-(1-methylethyl)-4-(3-pyridinyl)butyl]-2,4-pentadienamide]
- inhibition in vivo at 50 mg/kg: 57 ± 19%
- Percent Inhib. of PAF-Induced Bronchoconstriction, mg/Kg i.v.: 87 ± 7%

Structure (SMILES): CC(C)(CCCc1cccnc1)NC(=O)/C=C/C=C(c1cccc(F)c1)c1cccc(F)c1 [(E)-5,5-bis(3-Fluorophenyl)-N-[1,1-dimethyl-4-(3-pyridinyl)butyl]-2,4-pentadienamide]
- inhibition in vivo at 50 mg/kg: 11 ± 10%

Structure (SMILES): COc1cccc(C(=C/C=C/C(=O)NC(C)(C)CCCc2cccnc2)c2cccc(OC)c2)c1 [(E)-5,5-bis(3-Methoxyphenyl)-N-[1,1-dimethyl-4-(3-pyridinyl)butyl]-2,4-pentadienamide]
- inhibition in vivo at 50 mg/kg: 22 ± 10%

Structure (SMILES): CC(C)(CCCc1cccnc1)NC(=O)/C=C/C=C(c1ccc(F)cc1)c1ccc(F)cc1 [(E)-5,5-bis(4-Fluorophenyl)-N-[1,1-dimethyl-4-(3-pyridinyl)butyl]-2,4-pentadienamide]
- inhibition in vivo at 50 mg/kg: 20 ± 14%

Structure (SMILES): COc1ccc(C(=C/C=C/C(=O)NC(C)(C)CCCc2cccnc2)c2ccc(OC)cc2)cc1 [(E)-5,5-bis(4-Methoxyphenyl)-N-1,1-dimethyl-4-(3-pyridinyl)butyl]-2,4-pentadienamide]
- inhibition in vivo at 50 mg/kg: 54 ± 9%

Structure (SMILES): Cc1ccc(C(=C/C=C/C(=O)NCCCCc2cccnc2)c2ccc(C)cc2)cc1 [(E)-5,5-bis(4-methylphenyl)-N-[4-(3-pyridinyl)butyl]-2,4-pentadienamide]
- Percent Inhib. of PAF-Induced Bronchoconstriction, 50 mg/Kg p.o. (8 hr): 11 ± 6%
- inhibition in vivo at 50 mg/kg: 67 ± 15%
- Percent Inhib. of PAF-Induced Bronchoconstriction, mg/Kg i.v.: 95 ± 1%

Structure (SMILES): CCCCC/C(=C/C=C/C(=O)N[C@H](C)CCCc1cccnc1)c1ccc(OC)cc1 [[R-(2E,4Z)]-5-(4-methoxyphenyl)-N-[1-methyl-4-(3-pyridinyl)butyl]-2,4-decadienamide]
- Percent Inhib. of PAF-Induced Bronchoconstriction, mg/Kg i.v.: 57 ± 12%

Structure (SMILES): COc1ccc(/C(=C\C=C\C(=O)N[C@H](C)CCCc2cccnc2)c2ccccc2)cc1 [[R-(2E,4Z)]-5-(4-methoxyphenyl)-N-[1-methyl-4-(3-pyridinyl)butyl]-5-phenyl-2,4-pentadienamide]
- inhibition in vivo at 50 mg/kg: 0%
- Percent Inhib. of PAF-Induced Bronchoconstriction, mg/Kg i.v.: 74 ± 11%

Structure (SMILES): COc1ccc(/C(=C\C=C\C(=O)N[C@H](C)CCCc2cccnc2)C2CCCCC2)cc1 [[R-(2E,4Z)]-5-cyclohexyl-5-(4-methoxyphenyl)-N-[1-methyl-4-(3-pyridinyl)butyl]-2,4-pentadienamide]
- Percent Inhib. of PAF-Induced Bronchoconstriction, mg/Kg i.v.: 18 ± 12%

Structure (SMILES): CCCCC/C(=C\C=C\C(=O)N[C@H](C)CCCc1cccnc1)c1ccc(OC)cc1 [[R-(E,E)]5-(4-methoxyphenyl)-N-[1-methyl-4-(3-pyridinyl)butyl]-2,4-decadienamide]
- Percent Inhib. of PAF-Induced Bronchoconstriction, 50 mg/Kg p.o. (8 hr): 71 ± 14%
- inhibition in vivo at 50 mg/kg: 100 ± 0.5%
- Percent Inhib. of PAF-Induced Bronchoconstriction, mg/Kg i.v.: 99 ± 1%

Structure (SMILES): COc1ccc(/C(=C/C=C/C(=O)N[C@H](C)CCCc2cccnc2)c2ccccc2)cc1 [[R-(E,E)]-5-(4-methoxyphenyl)-N-[1-methyl-4-(3-pyridinyl)butyl]-5-phenyl-2,4-pentadienamide]
- inhibition in vivo at 50 mg/kg: 95 ± 1%
- Percent Inhib. of PAF-Induced Bronchoconstriction, mg/Kg i.v.: 89 ± 4%

Structure (SMILES): C[C@@H](CCCc1cccnc1)NC(=O)/C=C/C=C(c1ccc(F)cc1)c1ccc(F)cc1 [[S-(E)]-5,5-bis(4-fluorophenyl)-N-[1-methyl-4-(3-pyridinyl)butyl]-2,4-pentadienamide]
- inhibition in vivo at 50 mg/kg: 44 ± 10%
